Source: patent US5929082A, “Potassium ion channel blockers” (priority 1995, dated 1999)

How the values were obtained:
[1] = Kinetic/metabolite studies: HPLC analysis of plasma after oral administration; type: in vivo, Sprague-Dawley rats; conditions: for Compound in plasma / metabolites observed in plasma: after oral administration, HPLC; for metabolites observed in plasma: in words; for time within which the compound is metabolised after administration: oral administration
Protocol: Plasma samples were collected in order to test the correlation of plasma drug (or metabolite) concentration with hypoglycaemic activity, and to determine whether compounds of the invention were converted in vivo into active metabolites. The plasma levels of test compounds or metabolites also give an indication of rate of metabolism and kinetics of drug action.
Blood samples collected from rats treated as above and collected at the same intervals were analysed using an ICI LC1150 HPLC system and a LC1210 UV detector at a wavelength of 227 nm. The HPLC system used a Merck LiChroCART 125-4 LiChrosphere 100 RP-18 HPLC and LiChrosphere 100 RP-18 guard columns. The mobile phase consisted of 70% acetonitrile and a 30% aqueous sodium phosphate buffer at pH 7.45 and was prepared using standard HPLC grade reagents and distilled water. To improve the resolution of peaks and separation of the compounds a gradient method was established where changes in the concentration of the required buffers and solvents, and the time at which these changes occur is outlined in Table 7. The volumes are expressed as percentages of the total flow rate, with the flow rate remaining constant at […].
The data were acquired using the WinChrom Data Management system and were calibrated using stock solutions of the test compounds and Glibenclamide as an internal standard dissolved in 100% methanol
Plasma (250 μL) collected from the rats were extracted into methanol (700 μL) and 50 μL of Glibenclamide (25 μg/ml). The mixture was then agitated with a vortex mixer for 15 sec and centrifuged for 10 min. The clear supernatant was then carefully aspirated for HPLC analysis.
The results are outlined in Table 8 and show retention times (minutes) for the compounds and their metabolites as analysed by HPLC after oral administration in Sprague-Dawley rats. […] Glibenclamide is shown for comparison only, none of the metabolites observed with the test compounds correspond to metabolites of Glibenclamide.

[2] = Hypoglycaemic activity: change in blood glucose after oral gavage; type: in vivo, Sprague Dawley rats; conditions: 1.6 mg/kg oral gavage, normal fed male rats
Protocol: The biological activity of representative compounds of the invention was evaluated by means of several different tests. The activity of compounds of this invention as hypoglycaemic agents was measured and compared with the activity of the known compound of Example 1, using methods described in the literature. Thus normal, fed male Sprague Dawley rats weighing between 275 and 375 g were studied for changes in blood sugar levels and alterations to mean arterial blood pressure following administration of representative compounds of the invention suspended in a 5% solution of gum acacia by oral gavage at a dose of 1.6 mg/kg. The concentration of each compound was 4 mg in 10 ml, so that each rat received 1.1-1.5 ml to obtain the desired dose on a body weight basis. The blood sugar levels were recorded for each rat immediately prior to administration, and at 1, 2, and 3 hr following administration of the test compounds. Blood glucose levels were determined on blood samples taken from the tail, and analysed on an Ames blood glucometer, model 5626, and Ames, 2627 blood glucose strips (number 2). […] It is apparent that generally the heterocyclic sulphonylthioureas have greater activity than the sulphonylureas. Without wishing to be bound by any proposed mechanism for the observed effect, we believe that this may be associated with differences in lipid permeability.

[3] = test system: isolated guinea pig atria; experiment: Cardiac effects on isolated atrial preparations; design: species or system English short-haired guinea pigs; conditions: bath concentration 8×10^-6 M, 37° C., maximum responses
Protocol: Preliminary investigations were performed on isolated atrial preparations, and the results obtained using representative compounds of the invention compared to those obtained using the known compound of Example 1 and using Glibenclamide. English short-haired guinea pigs weighing between 200 and 300 g were killed by cervical dislocation. The whole heart was quickly removed by dissection and immersed in a Krebs-Henseleit solution, which had been aerated with carbogen (95% oxygen and 5% carbon dioxide). The atria were then separated by dissection in Krebs-Henseleit solution, whilst being aerated with carbogen.
The atria were then immersed in a 10 ml organ bath containing Krebs-Henseleit solution, maintained at 37° C. for the duration of the experiment by the circulation of water through the water jackets of organ baths by a temperature controlled water pump (Braun Thermomix, Germany), and aerated with carbogen. […] Changes in tension were measured by isometric force transducers and were recorded on a four channel Grass 7P Polygraph (Grass Instruments, Quincy, Mass., USA) which was calibrated daily such that the atria functioned with a resting tension of 1 g. The rate of beating of the atria was measured by the tachograph.
The activity of each test compound was assessed and compared to that of glibenclamide. […]

[4] = test system: MCF-7 human mammary carcinoma cells; experiment: Cell proliferation of MCF-7 tumour cells; type: cell-based; conditions: 100 μM compound
Protocol: The ability of a representative compound of the invention to inhibit proliferation of a tumour cell line was examined. MCF-7 human mammary carcinoma cells (Woodfork et al, 1995) were grown in 25 cm^2 Corning flasks in a 5% CO2 water jacket incubator. The medium used for the culture was RPMI 1640 (ICN) and was supplemented with 10% foetal Bovine serum (Cytosystems).
Cells and medium were examined daily to check for growth and infection. The medium was changed every second day. When cells reached 70-80% confluence, the cells were trypsinized with 0.05% trypsin (1:250, "DIFCO") and 0.02% EDTA.
The flasks were firstly washed with a phosphate buffer to remove residual RPMI 1640 medium, then covered with 2 mL of the trypsin solution and left in the incubator for 3-5 minutes. The cells were then transferred to a conical tube containing 2 mL of medium and 10% foetal bovine serum. The cells were centrifuged at 1000 rpm for 3 minutes and the supernatant removed 5 ml of the medium was then added to the pellet of cells and resuspended with a 2 ml pipette.
Approximately 10 μL of medium containing the cells was placed in a Neubauer haemocytometer, and the cells were counted in the 4×1 mm^2 grid per chamber. Cells were then diluted to contain 60×10^4 cells to be added to "Corning" 24 well plates (16 mm diameter). Wells respectively containing the control group and 100 μM compound 1-24 were established, and 3 wells/group/day were used to perform the cell growth study.
Each well contained 500 μL of medium or of compound 1-24. Plates were incubated for 24 hours before counting. The medium was aspirated with different pipette tips for the different study groups 100 μL of 0.02% EDTA solution was added to each well and incubated for 5 minutes. 200 μL of trypsin-EDTA was then added, and the cells incubated for a further 5 minutes, aspirated, and placed in 0.5 mL Eppendorf tubes before counting in a haemocytometer.

[5] = test system: MCF-7 mammary carcinoma cells; experiment: Thymidine uptake ([methyl-3H] thymidine incorporation into DNA); type: cell-based, human; conditions: 100 μM (printed 100 μH / 100 mM), compared to control group; Glibenclamide n=3, Compound 1-24 n=4
Protocol: Incorporation of [methyl-3H] thymidine into DNA was measured as described by Murphy and Lazarus (1983), using MCF-7 mammary carcinoma cells treated with compound 1-24 (100 μH) and a control group. The growth medium from cells cultured as described in Example 24 was aspirated from the wells, and 1 mL of fresh growth medium containing 1 μCi [3H]-thymidine (Amersham) was added to each well After 4 hours incubation, the medium was aspirated and the monolayers were washed three times with ice cold phosphate buffered saline (ICN). This was followed by three washes with 10% (v/v) ice cold trichloroacetic acid, each of 5 minutes duration. After another three washes with absolute ethanol at room temperature of 5 minutes duration, the monolayer was dried at room temperature for 10 minutes. The monolayer was […] after incubation for 12 hours with 0.5 N NaOH and 1% Triton-X 100 (Sigma). An aliquot of the cell lysate was added to 10 ml of Ultima Gold (Packard) and counted using a liquid scintillation counter (Packard model 19006A).

[6] = Cohen, 1986; cited from earlier work

| Compound in plasma [1] | metabolites observed in plasma [1] | Compound | Change in Blood Glucose, 0 hours [2] | Change in Blood Glucose, 1 Hour [2] | Change in Blood Glucose, 2 Hours [2] | Change in Blood Glucose, 3 Hours [2] | other results |
| --- | --- | --- | --- | --- | --- | --- | --- |
| – | – | Cc1ccc(S(=O)(=O)NC(=S)Nc2cccc(Br)n2)cc1 [Compound 1-21, N-[(4-Methylphenyl)sulphonyl]-N'-(6-bromopyrid-2-yl)thiourea] | 0.0 mmol/L | -0.9 mmol/L | -2.1 mmol/L | -0.7 mmol/L | – |
| no | numerous metabolites in the plasma | CCOc1cccc(NC(=S)NS(=O)(=O)c2ccc(C)cc2)n1 [Compound 1-24] | 0.0 mmol/L | 0.5 mmol/L | -2.2 mmol/L | -1.8 mmol/L | inotropic activity [3]: particularly marked inotropic activity; time within which the compound is metabolised after administration [1]: ≤ 2 h; doubling rate of control group greater than that of cells exposed to compound [4]: approximately 25%; Rate of cell growth: mean cell number, Day 0 ([4]; day 0, n=1 in triplicate): 60,000; Rate of cell growth: mean cell number, Day 1 ([4]; day 1, control 58,000): 74,000; Rate of cell growth: mean cell number, Day 2 ([4]; day 2, control 110,000): 93,000; Rate of cell growth: mean cell number, Day 3 ([4]; day 3, control 188,000): 143,000; Rate of cell growth: mean cell number, Day 6 ([4]; day 6, control 355,000): 230,000; effect on MCF-7 tumour cell proliferation ([4]; in words): reduces MCF-7 tumour cell proliferation; inhibition of thymidine uptake [5]: significant inhibition |
| no | numerous metabolites in the plasma | CCOc1cc(NC(=S)NS(=O)(=O)c2ccc(C)cc2)ccn1 [Compound 3-15, N-[(4-Methylphenyl)sulphonyl]-N'-(2-ethoxypyrid-4-yl)thiourea] | – | – | – | – | time within which the compound is metabolised after administration [1]: ≤ 2 h |
| – | – | Cc1ccc(S(=O)(=O)NC(=S)Nc2ccncc2)cc1 [Compound 3-23, N-[(4-Methylphenyl)sulphonyl]-N'-(4-pyridyl)thiourea] | 0.0 mmol/L | -1.0 mmol/L | -1.4 mmol/L | -2.1 mmol/L | inotropic activity [3]: particularly marked inotropic activity |
| – | – | Cc1ccc(S(=O)(=O)NC(=S)Nc2nc(C)cc(C)n2)cc1 [Compound 4-36, N-[(4-Methylphenyl)sulphonyl]-N'-(4,6-dimethylypyrimid-2-yl)thiourea] | 0.0 mmol/L | -1.1 mmol/L | -1.6 mmol/L | -1.3 mmol/L | – |
| – | – | Cc1ccc(S(=O)(=O)NC(=O)Nc2nc(C)cc(C)n2)cc1 [Compound of Example 1, reference compound] | 0.0 mmol/L | -0.8 mmol/L | -2.1 mmol/L | -0.8 mmol/L | – |
| – | – | CC(N/C(=N\C#N)Nc1ccncc1)C(C)(C)C (stereo not drawn) [pinacidil] | – | – | – | – | vasodilator activity [6]: vasodilator activity |

| Compound | Compound in plasma [1] | metabolites observed in plasma [1] | Change in Blood Glucose, 0 hours [2] | Change in Blood Glucose, 1 Hour [2] | Change in Blood Glucose, 2 Hours [2] | Change in Blood Glucose, 3 Hours [2] | other results |
| --- | --- | --- | --- | --- | --- | --- | --- |
| CCOc1cccc(NC(=O)NS(=O)(=O)c2ccc(C)cc2)n1 [Compound 1-4, N-[(4-Methylphenyl)sulphonyl]-N'-(6-ethoxypyrid-2-yl)urea] | yes | no metabolites were observed in the 4 hour period | – | – | – | – | – |
